{"source": "paper PMC12377105", "about": "“Development of eugenol derivatives with 5-LOX inhibitory activity” (Journal of Enzyme Inhibition and Medicinal Chemistry, 2025)", "target": "T1, soybean lipoxygenase (model enzyme for 5-LOX) (Glycine max, UniProt P08170)", "T1 sequence (P08170 1-839)": "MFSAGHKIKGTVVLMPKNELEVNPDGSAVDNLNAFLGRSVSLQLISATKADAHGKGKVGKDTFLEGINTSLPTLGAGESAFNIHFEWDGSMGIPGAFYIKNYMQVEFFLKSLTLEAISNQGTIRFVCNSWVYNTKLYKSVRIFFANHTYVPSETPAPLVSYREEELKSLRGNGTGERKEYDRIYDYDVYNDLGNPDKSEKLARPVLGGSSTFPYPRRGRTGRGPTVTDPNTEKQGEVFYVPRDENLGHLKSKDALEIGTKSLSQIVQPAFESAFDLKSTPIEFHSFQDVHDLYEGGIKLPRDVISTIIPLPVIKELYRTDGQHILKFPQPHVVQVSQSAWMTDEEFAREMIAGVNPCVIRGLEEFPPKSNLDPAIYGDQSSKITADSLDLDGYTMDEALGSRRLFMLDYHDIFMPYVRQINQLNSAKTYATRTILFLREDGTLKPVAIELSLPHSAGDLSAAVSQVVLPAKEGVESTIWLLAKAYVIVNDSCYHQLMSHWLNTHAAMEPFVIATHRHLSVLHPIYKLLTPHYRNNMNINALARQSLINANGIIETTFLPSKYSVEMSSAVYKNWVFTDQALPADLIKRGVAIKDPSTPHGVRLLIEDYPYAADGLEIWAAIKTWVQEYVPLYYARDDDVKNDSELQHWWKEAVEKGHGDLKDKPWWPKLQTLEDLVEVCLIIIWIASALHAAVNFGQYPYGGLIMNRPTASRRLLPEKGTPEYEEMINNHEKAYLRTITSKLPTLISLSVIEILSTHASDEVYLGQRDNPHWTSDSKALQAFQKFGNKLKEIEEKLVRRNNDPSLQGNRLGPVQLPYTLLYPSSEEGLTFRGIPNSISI", "experiment": "In vitro 5-LOX inhibition assay (soybean lipoxygenase, oxidation of linoleic acid at 234 nm)", "format": "biochemical", "conditions": "for IC50: dose-response, concentration range 6.25-100 µM", "description": "Soybean lipoxygenase (linoleate 13S-lipoxygenase) is widely accepted as a model enzyme to screen compounds for LOX inhibition due to the high degree of binding site similarity between plant LOXs and animal 5-LOX[20]. LOX inhibition was assessed at room temperature, following the oxidation of linoleic acid to 13-hydroperoxylinoleic acid at 234 nm, according to a described procedure. The assay was performed by adding 20 μL of each eugenol derivative (1.3 mM) dissolved in phosphate buffer, 200 μL of phosphate buffer (pH 9.0) and 20 μL of soybean lipoxygenase solution (100 U). After 5 min of incubation at room temperature, the reaction was initiated by the addition of 20 μL of linoleic acid (4.18 mM in ethanol), absorbance being monitored during 3 min, using a Multiskan GO plate reader (Thermo Fisher Scientific; Waltham, MA, USA). The inhibition of enzyme activity was then calculated by comparing the reaction rate with the control (no compound). Quercetin (50 μM, final concentration) was used as a positive control.", "key": {"[1]": {"conditions": "100 µM, cell-free preliminary screening"}}, "note": "“And” between values parts separate entries of the source, which are not always exact repeats. Identical values can stand only once.", "data": [{"smiles": "C=CCc1ccc(OCCCC(=O)OCC)c(OC)c1", "note": "[4e, ethyl-4-(4-allyl-2-methoxyphenoxy)butanoate]", "values": [{"measurement": "5-LOX inhibitory activity (in words)", "setting": "[1]", "value": "statistically significant reduction in 5-LOX activity"}, {"measurement": "IC50", "value": "< 100 µM and 76.2 µM"}]}, {"smiles": "COc1cc(CC2CO2)ccc1OCCCOC(C)=O", "note": "(stereo not drawn) [5d, 3-(2-methoxy-4-(oxiran-2-ylmethyl)phenoxy)propyl acetate]", "values": [{"measurement": "5-LOX inhibitory activity (in words)", "setting": "[1]", "value": "highly active"}, {"measurement": "IC50", "value": "< 100 µM and 36.9 µM"}]}, {"smiles": "COCC(O)Cc1ccc(O)c(OC)c1", "note": "(stereo not drawn) [7a]", "values": [{"measurement": "5-LOX inhibitory activity (in words)", "setting": "[1]", "value": "inactive"}]}, {"smiles": "CCOCC(O)Cc1ccc(O)c(OC)c1", "note": "(stereo not drawn) [7b]", "values": [{"measurement": "inhibition at 100 µM", "setting": "[1]", "value": "~30", "unit": "%"}]}, {"smiles": "COc1cc(CC(O)COC(C)(C)C)ccc1O", "note": "(stereo not drawn) [7c, 4-(3-(tert-butoxy)-2-hydroxypropyl)-2-methoxyphenol]", "values": [{"measurement": "5-LOX inhibitory activity (in words)", "setting": "[1]", "value": "almost full inhibition"}, {"measurement": "IC50", "value": "< 100 µM and 33.8 µM"}]}, {"smiles": "COc1cc(CC(O)COc2ccccc2)ccc1O", "note": "(stereo not drawn) [7f]", "values": [{"measurement": "5-LOX inhibitory activity (in words)", "setting": "[1]", "value": "inactive"}]}, {"smiles": "CCCCCCC(C)NCC(O)Cc1ccc(OC)c(O)c1", "note": "(stereo not drawn) [8b]", "values": [{"measurement": "5-LOX inhibitory activity (in words)", "setting": "[1]", "value": "did not show statistically significant inhibition"}]}, {"smiles": "COc1cc(CC(O)CN2CCCCC2)ccc1O", "note": "(stereo not drawn) [8c]", "values": [{"measurement": "5-LOX inhibitory activity (in words)", "setting": "[1]", "value": "did not show statistically significant inhibition"}]}, {"smiles": "COc1cc(CC(O)CN(C)c2ccccc2)ccc1O", "note": "(stereo not drawn) [8d]", "values": [{"measurement": "5-LOX inhibitory activity (in words)", "setting": "[1]", "value": "statistically significant activity"}]}, {"smiles": "COc1cc(CC(O)CNc2ccccc2)ccc1O", "note": "(stereo not drawn) [8e]", "values": [{"measurement": "5-LOX inhibitory activity (in words)", "setting": "[1]", "value": "did not show statistically significant inhibition"}]}, {"smiles": "COc1cc(CC(O)CNc2ccc(C#N)cc2)ccc1O", "note": "(stereo not drawn) [8f]", "values": [{"measurement": "5-LOX inhibitory activity (in words)", "setting": "[1]", "value": "did not show statistically significant inhibition"}]}, {"smiles": "COc1ccc(NCC(O)Cc2ccc(O)c(OC)c2)cc1", "note": "(stereo not drawn) [8g]", "values": [{"measurement": "5-LOX inhibitory activity (in words)", "setting": "[1]", "value": "statistically significant activity"}]}, {"smiles": "COc1cccc(NCC(O)Cc2ccc(O)c(OC)c2)c1", "note": "(stereo not drawn) [8h]", "values": [{"measurement": "5-LOX inhibitory activity (in words)", "setting": "[1]", "value": "statistically significant activity"}]}, {"smiles": "COc1cc(CC(O)CNc2cccc(Br)c2)ccc1O", "note": "(stereo not drawn) [8i]", "values": [{"measurement": "5-LOX inhibitory activity (in words)", "setting": "[1]", "value": "did not show statistically significant inhibition"}]}, {"smiles": "COc1cc(CC(O)C[N+](=O)[O-])ccc1O", "note": "(stereo not drawn) [9a]", "values": [{"measurement": "5-LOX inhibitory activity (in words)", "setting": "[1]", "value": "did not show statistically significant inhibition"}]}, {"smiles": "C=CCc1ccc(O)c(O)c1", "note": "[compound 2, 4-allylbenzene-1,2-diol]", "values": [{"measurement": "5-LOX inhibitory activity (in words)", "setting": "[1]", "value": "promising activity"}, {"measurement": "IC50", "value": "< 100 µM and 34 µM"}]}, {"smiles": "COc1cc(CC2CO2)ccc1O", "note": "(stereo not drawn) [compound 6, 2-methoxy-4-(oxiran-2-ylmethyl)phenol]", "values": [{"measurement": "5-LOX inhibitory activity (in words)", "setting": "[1]", "value": "did not show inhibitory activity"}]}]}
